These results are taken from ChEMBL document CHEMBL4673349, “Trichodestruxins A-D: Cytotoxic Cyclodepsipeptides from the Endophytic Fungus Trichoderma harzianum” (J Nat Prod, 2020).

As a reminder, the IC50 is the concentration that gives 50% inhibition.

Where a name gives a salt, the structure may show the parent alone.

Common to all, as to format: functional, cell-based
The subject of one assay is HT-29. The experiment in a line: Cytotoxicity against human HT-29 cells assessed as reduction in cell viability after 72 hrs by MTT assay. The conditions noted are these: HT-29, 72 h. (Tetrazolium assays rely on reduction of a dye to a coloured formazan, in cell work by metabolically active cells.)
For the next assay, the system named is A549. The experiment in a line: Cytotoxicity against human A549 cells assessed as reduction in cell viability after 72 hrs by MTT assay. The conditions noted are these: A549, 72 h.
In a further assay the test system is P388. The experiment in a line: Cytotoxicity against mouse p388 cells assessed as reduction in cell viability after 72 hrs by MTT assay. The conditions noted are these: P388, 72 h.

Consider `C=CC[C@H]1OC(=O)CCNC(=O)[C@H](C)N(C)C(=O)[C@H](C(C)C)N(C)C(=O)[C@H](C(C)C)NC(=O)[C@@H]2[C@@H](C)CCN2C1=O`, for which the IC50 is 7.8 µM in the assay with HT-29, 15.6 µM in the assay with A549 and 17 µM in the assay with P388.
The like results for `CC(C)[C@@H]1NC(=O)[C@@H]2[C@@H](C)CCN2C(=O)[C@@H](C[C@@H](O)CO)OC(=O)CCNC(=O)[C@H](C)N(C)C(=O)[C@H](C(C)C)N(C)C1=O` were, in that order, 16.7 µM, 8.8 µM and 19.1 µM.
Take `CC(C)C[C@H]1OC(=O)CCNC(=O)[C@H](C)NC(=O)[C@H](C(C)C)N(C)C(=O)[C@H](C(C)C)NC(=O)[C@@H]2[C@@H](C)CCN2C1=O`: the results for the IC50 in the assay with HT-29, in the assay on A549 and with P388 were > 20 µM, 17.5 µM and > 20 µM, respectively.
On to `CC(C)C[C@H]1OC(=O)CCNC(=O)[C@H](C)N(C)C(=O)[C@H](C(C)C)N(C)C(=O)[C@H](C(C)C)NC(=O)[C@@H]2[C@@H](C)CCN2C1=O`, for which the results for the IC50 in the assay on HT-29, with A549 and in the assay with P388 were 3.4 µM, 10.3 µM and 8.4 µM, respectively.
The like results for `COc1cccc2c1C(=O)c1c(O)c3c(c(O)c1C2=O)C[C@@](O)(C(=O)CO)C[C@@H]3O[C@H]1C[C@H](N)[C@H](O)[C@H](C)O1` [DOXORUBICIN HYDROCHLORIDE] were, in that order, 1.8 µM, 2.3 µM and 0.3 µM.
